{"source": "patent US5670479A", "about": "“α-ketoamide derivatives as inhibitors of thrombosis” (Corvas International, Inc., priority 1994, dated 1997)", "key": {"[1]": {"system": "baboons", "details": "baboon, other direct antithrombins evaluated earlier in this model, cited from earlier work"}, "[2]": {"molecular_target": "a-thrombin (Homo sapiens, UniProt P00734)", "test": "Thrombin-induced clotting of purified fibrinogen", "assay_type": "biochemical", "details": "preincubation with a-thrombin 0, 30, 60 minutes before fibrinogen", "method": "The clotting time of fibrinogen following the addition of the thrombin/inhibitor complex was measured optically using the Coag-A-Mate XC automated coagulometer (General Diagnostics, Organon Technica, Oklahoma City, Okla.).\nThis inhibition is reflected as an increase in the relative clotting time which is the ratio of the […]. The control clotting time in this assay is 16.2±0.78 sec."}, "[3]": {"system": "Male Harlan Sprague Dawley rats", "test": "Venous stasis model in rats", "assay_type": "in vivo", "details": "rat; for % Clot: mean ± S.E.M.", "method": "This is one of the most commonly used models in the evaluation of antithrombotic compounds. Hladovec, J. Thromb. […] Talbot, M. D., et. al., Thromb.\nMale Harlan Sprague Dawley rats (420-450 g) were acclimated at least 72 hours prior to use. The animals were fasted for 12 hours prior to surgery with free access to water. The animals were anesthetized with a sodium pentobarbital (Nembutal) given intraperitoneally at a dose of 50 mg/kg body weight and placed on a isothermal pad to maintain body temperature. The level of anesthesia was monitored every 15 minutes by: neuro-response to a tail pinch, respiration and body core temperature. The desired depth of surgical anesthesia was maintained by administering subsequent doses (5 mg/kg) intravenously. The left femoral artery was catheterized with polyethylene tubing (PE50) using standard procedures for blood pressure monitoring and blood sampling. The left and right femoral veins were catheterized with PE50 tubing for delivery of anesthetic and test compounds respectively.\nBlood pressure, heart rate, core temperature and respiration were monitored continuously.\nThe abdomen of the animals is opened by making a vertical midline incision followed by isolation of the IVC using dissection. The segment extends from below the renal to above the iliac vessels (about 2 cm in length). The peripheral blood vessels are tied off and a ligature is loosely placed at the distal and proximal ends of the isolated segment. Rabbit brain thromboplastin (RBT)(Sigma Chemical Co., St. Louis Mo.) is prepared by resuspending the contents of the vial with 2 mL of sterile saline pre-warmed to 37° C. At the end of the 30 minute infusion period, RBT is systemically administered as a bolus injection (1.5 mL/kg) via the femoral catheter. Stasis is induced within the isolated IVC segment by securing the proximal and distal ligature 10 sec following the administration of the RBT. Following a 30 minute period of stasis the tied off IVC segment is removed and the contents weighed. Clot formation was defined as %clot: [Weight of the isolated clot/(Weight of the intact segment-the weight of the empty segment)] ×100. This method was used to correct for slight differences in segment size and fluid content.\nFollowing termination of the experiment the animal was euthanized with a 120 mg/kg dose of Nembutal."}, "[4]": {"molecular_target": "thrombin (Homo sapiens, UniProt P00734)", "details": "reported in literature; cited from earlier work"}, "[5]": {"system": "Male Harlan Sprague Dawley rats", "test": "Rat model of FeCl3-induced platelet-dependent arterial thrombosis", "assay_type": "in vivo", "excerpt": "Kurz, K. D., Main, B. W., and Sandusky, G. E., Thromb. Res., 60: 269-280. (1990). In this model a platelet-rich, occlusive thrombus is formed in a segment of the rat carotid artery treated with a fresh solution of FeCl3 absorbed to a piece of filter paper. The FeCl3 is thought to diffuse into the treated segment of artery and causes de-endothelialization resulting in thrombus formation. The effect of a test compound on the incidence of occlusive thrombus formation following the application of the FeCl3 is monitored by ultrasonic flowtometry and is used as the primary end point. The use of flowtometry is a modification of the original procedure in which thermal detection of clot formation was employed. Kurz, K. D., Main, B. W., and Sandusky, G. E., Thromb. Res., 60: 269-280 (1990).\nMale Harlan Sprague Dawley rats (420-450 g) were acclimated at least 72 hours prior to use and fasted for 12 hours prior to surgery with free access to water. The animals were prepared, anesthetized with Nembutal with catheters for blood pressure monitoring, drug and anesthesia delivery being implanted as described above. The left carotid artery was exposed and isolated by making a midline cervical incision followed by blunt dissection and spreading techniques to separate a 2 cm segment of the vessel from the carotid sheath. A silk suture is inserted under the proximal and distal ends of the isolated vessel to provide clearance for the placement of a ultrasonic flow probe (Transonic) around the proximal end of the vessel. The probe is then secured with a stationary arm.\nThe test compounds were administered as described above after placement of the flow probe and stabilization of the preparation for a period of 60 minutes prior to the thrombogenic stimulus. At t=0, a 3 mm diameter piece of filter paper (Whatman #3) soaked with […] of a 35% solution of fresh FeCl3 (in water) was applied the segment of isolated carotid artery distal to the flow probe. Blood pressure, blood flow, heart rate, and respiration were monitored for 60 minutes.\nThe incidence of occlusion (defined as the attainment of zero blood flow) was recorded as the primary end point. Following the 60 minute observation period the flow probe was removed and the area cleared of all excess fluid. The distal and proximal sutures were tied off and arterial clamps placed on the far proximal and distal ends of the segment. The isolated segment was cut out, blotted dry on filter paper and weighed. The segment was re-weighed following removal of the clot and the difference recorded as total % clot (see above). Weights were recorded on only those segments which had detectable thrombus. Following the procedure the animals were euthanized as described above."}, "[6]": {"system": "washed human platelets", "test": "Thrombin-induced aggregation in washed human platelets", "assay_type": "cell-based", "method": "Washed human platelets were prepared from freshly isolated venous blood obtained from normal, healthy volunteers who had not taken any medication which might affect platelet function, according to the procedure of Connolly, T. M. et al., J. Biol. Chem., 267: 6893. (1992). Inhibitors, were added in a volume of […] to […] of prewarmed washed platelets in a siliconized glass cuvette (Chronolog Corp., Hayertown, Pa.) followed by […] of 0.25M CaCl2. The rate and extent of aggregation were measured for 5-15 minutes by the change in light transmission in a stirred cuvette, following the addition of […] of a-thrombin (final concentration 2 nM), using a Chronolog Whole Blood Aggregometer equipped with the Aggro/Link data acquisition system (Chronolog Corp., Hayertown, Pa.)."}, "[7]": {"details": "Group 4: 0.1 mg/kg i.v. bolus + 40 mg/kg/min i.v. infusion"}}, "data": [{"substance": "(D-Phe)-Pro-Arg-Pro-(Gly)4 -Asn-Gly-Asp-Phe-Glu-Glu-Ile-Pro-Glu-Glu-Tyr-Leu-OH [Hirulog-1]", "values": [{"measurement": "Antihemostatic Effects APTT", "setting": "[1]; control 32 sec", "result": "> 300", "unit": "s"}, {"measurement": "Antihemostatic Effects Bleeding Time", "setting": "[1]; control 4 min", "result": 21, "unit": "min"}, {"measurement": "proteolytic inactivation by thrombin on preincubation", "setting": "[2]", "result": "sensitive to proteolytic degradation"}, {"measurement": "% Clot", "setting": "[3]; 0.1 mg/kg i.v. bolus + 40 mg/kg/min i.v. infusion", "result": "25.75 ± 3.71", "unit": "%"}, {"measurement": "% Clot", "setting": "[3]; 0.1 mg/kg i.v. bolus + 60 mg/kg/min i.v. infusion", "result": "26.50 ± 3.59", "unit": "%"}, {"measurement": "% Clot", "setting": "[3]; 0.1 mg/kg i.v. bolus + 80 mg/kg/min i.v. infusion", "result": "25.75 ± 0.41", "unit": "%"}, {"measurement": "effect on venous thrombus formation induced by stasis and thromboplastin", "setting": "[3]; summary in words", "result": "did not have any effect"}, {"measurement": "Ki", "setting": "[4]", "result": 2.56, "unit": "nM"}, {"measurement": "Incidence of Occlusion", "setting": "[5]; Group 1: 0.1 mg/kg i.v. bolus + 5 mg/kg/min i.v. infusion", "result": "3/3"}, {"measurement": "% Clot", "setting": "[5]; Group 1: 0.1 mg/kg i.v. bolus + 5 mg/kg/min i.v. infusion, mean ± S.E.M., segments with detectable thrombus", "result": "70.1 ± 5.5", "unit": "%"}, {"measurement": "Incidence of Occlusion", "setting": "[5]; Group 2: 0.1 mg/kg i.v. bolus + 10 mg/kg/min i.v. infusion", "result": "5/6"}, {"measurement": "% Clot", "setting": "[5]; Group 2: 0.1 mg/kg i.v. bolus + 10 mg/kg/min i.v. infusion, mean ± S.E.M., segments with detectable thrombus", "result": "59.42 ± 4.34", "unit": "%"}, {"measurement": "Incidence of Occlusion", "setting": "[5]; Group 3: 0.1 mg/kg i.v. bolus + 20 mg/kg/min i.v. infusion", "result": "5/6"}, {"measurement": "% Clot", "setting": "[5]; Group 3: 0.1 mg/kg i.v. bolus + 20 mg/kg/min i.v. infusion, mean ± S.E.M., segments with detectable thrombus", "result": "45.3 ± 11.63", "unit": "%"}, {"measurement": "% Clot", "setting": "[5]; [7]", "result": 0, "unit": "%"}, {"measurement": "Incidence of Occlusion", "setting": "[5]; [7]", "result": "0/6"}, {"measurement": "persistence of inhibition of aggregation over the 15 minute assay", "setting": "[6]; 20 nM (compound 8), same or higher concentrations (Hirulog-1), FIG. 4", "result": "did not cause sustained inhibition"}, {"measurement": "IC50", "setting": "[6]; a-thrombin 2 nM, extent of aggregation over 1 minute, mean ± SD of three", "result": "16 ± 3", "unit": "nM"}]}]}
